Marks after values point to notes of the source that are not given here.
Columns and labels:
[1] = target: human full length PDE3B (Homo sapiens (Human), UniProt Q13370); test: PDE3B enzyme inhibition (3H-cAMP Scintillation Proximity Assay); type: biochemical; conditions: Sf9 cell extract, 60 min room temperature
Protocol: The commercially available 3H-cAMP Scintillation Proximity Assay (SPA, Perkin Elmer) system was used for enzyme inhibition studies. For the determination of the in vitro effect of example compounds on the PDE3B reactions 2 μl of the respective example compound solution in DMSO (serial dilutions) were placed in wells of microtiter plates (Isoplate-96/200W; Perkin Elmer). 50 μl of a dilution of PDE3B cell extract from Sf9 cells overexpressing human full length PDE3B (SB Drug Discovery, UK) in buffer A (50 mM Tris/HCl pH 7.5, 8.3 mM MgCl2, 1.7 mM EDTA, 0.2% BSA) was added. The dilution of the PDE3B cell extract was chosen such that the reaction kinetics was linear and less than 70% of the substrate was consumed (typical dilution 1:6000). The reaction was started by addition of 50 μl (0.025 μCi) of 1:2000 in buffer A w/o BSA diluted substrate [8-3H]adenosine 3′, 5′-cyclic phosphate (1 μCi/μl; Perkin Elmer). After incubation at room temperature for 60 min, the reaction was stopped by addition of 25 μl of a suspension containing 18 mg/ml yttrium scintillation proximity beads (Perkin Elmer) in water. The microtiter plates were sealed and measured in a Microbeta scintillation counter (PerkinElmer Wallac). IC50 values were determined from sigmoidal curves by plotting percentage PDE3B activity vs log compound concentration.

[2] = In vivo pharmacokinetics in mice (i.v.); set-up: species or system female CD-1 mice; conditions: Mouse/female/CD1, 0.5 mg/kg i.v., PEG400 60% + Water 35% + EtOH 5%
Protocol: (§1) For in vivo pharmacokinetic experiments test compounds were administered to female CD-1 mice, male Wistar rats, Beagle dogs or Cynomolgus monkeys intravenously at doses of 0.3 to 1 mg/kg formulated as solutions using solubilizers such as PEG400 in well-tolerated amounts.
(§2) Studies may also have been performed as cassette administrations of up to 3 compounds given together simultaneously in low doses.
(§3) For pharmacokinetics after intravenous administration test compounds were given in the female mice and male rat as i.v. bolus and in dogs and monkeys as short term infusion (15 min). Blood samples were taken e.g. at 2 min, 8 min, 15 min, 30 min, 45 min, 1 h, 2 h, 4 h, 6 h, 8 h and 24 h after dosing from the vena jugularis (mouse, rat) or vena saphena (dog, monkey). […] PK parameters were calculated by non-compartmental analysis using a PK calculation software (e.g. Phoenix WinNonlin®, Certara USA, Inc.).
(§4) PK parameters derived from concentration-time profiles after i.v.: CLplasma (in L/kg/h): Total plasma clearance of test compound calculated by dose (in μg/kg) divided by area under the concentration-time curve from t=0 h to infinity (extrapolated) (AUCinf in μg*h/L); CLblood: Total blood clearance of test compound: CLplasma*Cp/Cb (in L/kg/h) with Cp/Cb being the ratio of test compound concentrations in plasma and blood. […]

[3] = In vivo pharmacokinetics in rats (i.v.); conditions: Rat/male/Wistar, 0.5 mg/kg i.v., Plasma 95% + EtOH 4% + DMSO 1%
Protocol: as §1, §2, §3, §4

[4] = In vivo pharmacokinetics in dogs (i.v.); conditions: Dog/female/Beagle, 0.3 mg/kg i.v., PEG400 50% + Water 40% + EtOH 10%
Protocol: as §1, §2, §3, §4

[5] = system: IGR-37 melanoma xenograft; test: In vivo xenotransplantation model of human cancer; set-up: species or system mice; conditions: for T/C: IGR-37 Melanoma, mean final tumor weight treatment vs control, study end
Excerpt: The anti-tumor activity of Example 1, ((5S)-5-methyl-6-{3-(trifluoromethyl)-4-[3-(trifluoromethyl)-1H-pyrazol-1-yl]phenyl}-4,5-dihydro-1,2,4-triazin-3(2H)-one), was examined in murine xenotransplantation models of human cancer. For this purpose, mice were implanted subcutaneously with tumor cells. At a mean tumor size of 20-40 mm^2 animals were randomized into treatment and control groups (at least n=10 animals/group) and treatment started with vehicle only or Example 1 (formulation: 90% PEG400/10% Ethanol; application route: per os (“p.o.”), orally). The oral application volume was 10 ml/kg. In the case of twice daily treatments, the time interval between two applications per day was 6-7 h. The tumor size and the body weight were determined at least weekly. The tumor area was detected by means of an electronic caliper [length (mm)×width (mm)]. The experiment was ended when the tumors of the vehicle control reached the pre-determined ethical endpoint based on German and European animal welfare regulations. In vivo anti-tumor efficacy is presented as T/C ratio at study end (Treatment/Control; mean tumor area or weight of treatment group/mean tumor area or weight of control group) in Table 7. A compound having a T/C below 0.5 is defined as active (i.e., effective). Statistical analysis was assessed using SigmaStat software. A one-way analysis of variance was performed and differences to the control were compared by a pair-wise comparison procedure (Dunn's method).

human full length PDE3B, sequence (Q13370 whole entry): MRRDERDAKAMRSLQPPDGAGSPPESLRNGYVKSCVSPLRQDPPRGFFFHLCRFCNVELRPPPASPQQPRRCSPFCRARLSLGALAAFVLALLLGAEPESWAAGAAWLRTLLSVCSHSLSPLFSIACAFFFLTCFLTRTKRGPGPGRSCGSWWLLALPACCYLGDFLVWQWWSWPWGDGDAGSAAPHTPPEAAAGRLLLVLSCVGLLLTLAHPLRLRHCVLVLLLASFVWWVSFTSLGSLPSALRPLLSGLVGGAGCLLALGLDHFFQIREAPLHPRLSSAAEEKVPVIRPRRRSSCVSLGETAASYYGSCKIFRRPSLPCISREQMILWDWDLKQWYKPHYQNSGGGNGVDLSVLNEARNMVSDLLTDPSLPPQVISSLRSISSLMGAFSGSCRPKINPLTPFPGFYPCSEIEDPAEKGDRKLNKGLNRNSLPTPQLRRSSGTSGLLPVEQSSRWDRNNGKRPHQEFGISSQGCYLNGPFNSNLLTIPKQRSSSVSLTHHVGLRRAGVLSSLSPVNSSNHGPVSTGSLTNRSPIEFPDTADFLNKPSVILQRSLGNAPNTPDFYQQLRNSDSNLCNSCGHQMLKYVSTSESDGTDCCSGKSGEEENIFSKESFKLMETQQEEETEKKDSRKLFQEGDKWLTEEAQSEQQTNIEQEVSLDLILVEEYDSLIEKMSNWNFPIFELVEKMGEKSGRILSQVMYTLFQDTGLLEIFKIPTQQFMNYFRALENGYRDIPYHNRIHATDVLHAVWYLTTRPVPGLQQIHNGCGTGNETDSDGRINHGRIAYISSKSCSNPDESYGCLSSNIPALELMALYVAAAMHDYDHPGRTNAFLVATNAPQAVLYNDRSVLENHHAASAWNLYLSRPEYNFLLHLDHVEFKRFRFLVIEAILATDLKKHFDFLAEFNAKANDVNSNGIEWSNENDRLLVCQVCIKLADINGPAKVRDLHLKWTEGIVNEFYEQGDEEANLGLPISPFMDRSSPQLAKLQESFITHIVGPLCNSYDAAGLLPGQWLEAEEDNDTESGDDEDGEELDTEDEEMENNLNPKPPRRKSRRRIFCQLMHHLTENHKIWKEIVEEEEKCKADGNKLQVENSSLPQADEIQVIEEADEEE

C[C@@H]1NC(=O)NN=C1c1ccc(-n2ccc(C(F)(F)F)n2)c(C(F)(F)F)c1 [Example 1, (5S)-5-methyl-6-{3-(trifluoromethyl)-4-[3-(trifluoromethyl)-1H-pyrazol-1-yl]phenyl}-4,5-dihydro-1,2,4-triazin-3(2H)-one]
IC50 [1]: 81 nM | CLblood [2]: 0.18 L/h/kg | CLblood [3]: 0.22 L/h/kg | CLblood [4]: 0.27 L/h/kg | T/C ([5]; 1 mg/kg 2QD p.o.): 0.06 * | T/C ([5]; 2 mg/kg 2QD p.o.): 0.06 * | T/C ([5]; 4 mg/kg 2QD p.o.): 0.06 * | T/C ([5]; 4 mg/kg QD p.o.): 0.07 * | anti-tumor efficacy (reduction of tumor area) ([5]; xenograft model of human tumors, melanoma, monotherapy): effective in reduction of tumor area in melanoma

— US20250170136A1, “1,2,4-TRIAZIN-3(2H)-ONE COMPOUNDS FOR THE TREATMENT OF HYPERPROLIFERATIVE DISEASES” (BAYER AKTIENGESELLSCHAFT, priority 2019, published 2025)
